Source: patent publication US20110020462A1, “NEW USE OF HISTONE DEACETYLASE INHIBITORS IN CHANGING MRJP3 PROTEIN IN ROYAL JELLY” (NATUREWISE BIOTECH & MEDICALS CORPORATION, priority 2009, published 2011)

Experiments:
larvae of the queen bee = experiment: Growth (weight) of larvae of the queen bee fed royal jelly secreted by young worker bees fed the test substance in sugar water; assay type: in vivo, Apis mellifera
MRJP3 = experiment: Ratio of 68 to 64 kDa MRJP3 protein in royal jelly (SDS-PAGE); assay type: in vivo, Apis mellifera
Protocol: Beehives with the similar expression level of MRJP3 protein were selected for use, and two beehives were tested in each control or experimental group. On the first day, the honey originally contained in the beehives was removed by shaking, and the bees (Apis mellifera) were fed sugar water twice (normal sugar water for the control group and special sugar water for the experimental group) for two days. The special sugar water was a 10-fold dilution of the formulated sugar powder in water. On the third day, 1.5-day old larvae (which were the offspring of the same queen) were inserted into the beehives, and the bees were fed once (normal sugar water for the control group and special sugar water for the experimental group). After 24, 48, and 72 hrs, 20 larvae and the royal jelly in the cells of said 20 larvae were collected for qualitative, quantitative, and proteomic analyses.
For qualitative analysis, royal jelly and sterilized water at a weight ratio of 1:10 was mixed for extraction. A particular amount of the proteins in the aqueous layer were removed for determination of protein concentration by Bradford dye-binding method (Bio-Rad protein assay, Bio-Rad Laboratories, Inc.). The absorption at 595 nm of the protein samples was determined by Elisa Reader (Bio-TEK). […]

SMILES: CC(C)=CCC/C(C)=C/Cc1c([C@@H]2CC(=O)c3c(cc(O)c(CC=C(C)C)c3O)O2)ccc(O)c1O [Propolin G, propolin G]
- larva weight increase (larvae of the queen bee; Example 5, 300 mg/kg, period of 24 to 48 hours, control around 1.60 fold): around 5.05 fold
- larva weight increase (larvae of the queen bee; Example 5, 300 mg/kg, period of 48 to 72 hours, control around 1.22 fold): around 5.79 fold
- Average weight of each larva (larvae of the queen bee; Table 6, 150 mg/kg, 24 h, control 5.23): 5.73 mg
- Average weight of each larva (larvae of the queen bee; Table 6, 150 mg/kg, 48 h, control 13.57): 54.2 mg
- Average weight of each larva (larvae of the queen bee; Table 6, 150 mg/kg, 72 h, control 30.07): 156.63 mg
- Average weight of each larva (larvae of the queen bee; Table 6, 300 mg/kg, 24 h, control 5.23): 3.93 mg
- Average weight of each larva (larvae of the queen bee; Table 6, 300 mg/kg, 48 h, control 13.57): 23.80 mg
- Average weight of each larva (larvae of the queen bee; Table 6, 300 mg/kg, 72 h, control 30.07): 161.73 mg
- Average weight of each larva (larvae of the queen bee; Table 6, 600 mg/kg, 24 h, control 5.23): 2.70 mg
- Average weight of each larva (larvae of the queen bee; Table 6, 600 mg/kg, 48 h, control 13.57): 13.67 mg
- Average weight of each larva (larvae of the queen bee; Table 6, 600 mg/kg, 72 h, control 30.07): 85.67 mg
- Average weight of each larva (larvae of the queen bee; Table 8, positive control 150 mg/kg, 24 h, control 1.9): 3.6 mg
- Average weight of each larva (larvae of the queen bee; Table 8, positive control 150 mg/kg, 48 h, control 13.3): 41.2 mg
- Average weight of each larva (larvae of the queen bee; Table 8, positive control 150 mg/kg, 72 h, control 38.4): 178.6 mg

SMILES: CC(C)=CCC/C(C)=C/Cc1c(O)cc2c(c1O)C(=O)C[C@@H](c1ccc(O)c(O)c1)O2 [Propolin C, propolin C]
- larva weight increase (larvae of the queen bee; Example 4, 100 mg/kg, period of 48 to 72 hours, control around 3.58 fold): around 6.30 fold
- Average weight of each larva (larvae of the queen bee; Table 5, 50 mg/kg, 24 h, control 3.52): 2.40 mg
- Average weight of each larva (larvae of the queen bee; Table 5, 50 mg/kg, 48 h, control 13.45): 15.2 mg
- Average weight of each larva (larvae of the queen bee; Table 5, 50 mg/kg, 72 h, control 61.60): 70.17 mg
- Average weight of each larva (larvae of the queen bee; Table 5, 100 mg/kg, 24 h, control 3.52): 2.38 mg
- Average weight of each larva (larvae of the queen bee; Table 5, 100 mg/kg, 48 h, control 13.45): 13.48 mg
- Average weight of each larva (larvae of the queen bee; Table 5, 100 mg/kg, 72 h, control 61.60): 98.48 mg
- protein components of the royal jelly secreted by young worker bees (MRJP3; 50 to 100 mg/kg): significantly changed

SMILES: O=C(CCCCCCC(=O)Nc1ccccc1)NO [SAHA, suberoylanilide hydroxamide acid, reference compound]
- Average weight of each larva (larvae of the queen bee; Table 8, 5 mg/kg, 24 h, control 1.9): 4.0 mg
- Average weight of each larva (larvae of the queen bee; Table 8, 5 mg/kg, 48 h, control 13.3): 28.2 mg
- Average weight of each larva (larvae of the queen bee; Table 8, 5 mg/kg, 72 h, control 38.4): 149.3 mg
- Average weight of each larva (larvae of the queen bee; Table 8, 15 mg/kg, 24 h, control 1.9): 7.3 mg
- Average weight of each larva (larvae of the queen bee; Table 8, 15 mg/kg, 48 h, control 13.3): 41.0 mg
- Average weight of each larva (larvae of the queen bee; Table 8, 15 mg/kg, 72 h, control 38.4): 149.2 mg
- ratio of the protein components of the royal jelly secreted by young worker bees (MRJP3; 5 to 15 mg/kg): significantly changed
